# Test results as given in patent publication US9169219B2, “Herbicidally active 4-nitro-substituted N-(tetrazol-5-yl)-, N-(triazol-5-yl)-, and N-(1,3,4-0XADIAZOL-2-yl)aryl carboxylic acid amides” (BAYER INTELLECTUAL PROPERTY GMBH, priority 2012, dated 2015).
# Assays:
# Type in all cases: in vivo
# Stellaria media = experiment: Post-emergence herbicidal action against weed plants; conditions: 504 h, one-leaf stage, visual assessment after about 3 weeks vs untreated controls (100% = plants have died)
# Experimental: (§1) 2. Post-emergence Herbicidal Action Against Weed Plants Seeds of monocotyledonous and dicotyledonous weed and crop plants are placed in sandy loam in wood-fiber pots, covered with soil and cultivated in a greenhouse under good growth conditions. 2 to 3 weeks after sowing, the test plants are treated at the one-leaf stage. The inventive compounds formulated in the form of wettable powders (WP) or as emulsion concentrates (EC) are then sprayed onto the green parts of the plants as an aqueous suspension or emulsion at a water application rate of 600 to 800 I/ha (converted) with addition of 0.2% wetting agent. After the test plants have been left to stand in the greenhouse under optimal growth conditions for about 3 weeks, the action of the formulations is assessed visually in comparison to untreated controls (herbicidal action in percent (%): 100% activity=the plants have died, 0% activity=like control plants).
# Abutilon theophrasti = experiment: as above; conditions: 504 h, one-leaf stage, visual assessment after about 3 weeks vs untreated controls (100% = plants have died)
# Experimental: as §1
# maize = experiment: Pre-emergence test, damage to crop plants; conditions: 320 g/ha, visual assessment after 3 weeks
SMILES,pest or weed control at 80 g/ha (Stellaria media) [%],pest or weed control at 80 g/ha (Abutilon theophrasti) [%],damage in maize (maize)
"COc1c([N+](=O)[O-])ccc(C(=O)Nc2nnnn2C)c1Br [1-1, 2-bromo-3-methoxy-N-(1-methyl-1H-tetrazol-5-yl)-4-nitrobenzamide]",≥ 80,≥ 80,–
CCOCCOc1c([N+](=O)[O-])ccc(C(=O)Nc2nnnn2C)c1Br [1-20],–,–,no damage whatsoever
Cn1nnnc1NC(=O)c1ccc([N+](=O)[O-])c(OCC2COCCO2)c1Br (stereo not shown) [1-34],≥ 80,≥ 80,no damage whatsoever
COc1c([N+](=O)[O-])ccc(C(=O)Nc2nnnn2C)c1Cl [1-44],≥ 80,≥ 80,–
COCCOc1c([N+](=O)[O-])ccc(C(=O)Nc2nnnn2C)c1Cl [1-61],–,–,no damage whatsoever
COCCCOc1c([N+](=O)[O-])ccc(C(=O)Nc2nnnn2C)c1Cl [1-62],–,–,no damage whatsoever
Cn1nnnc1NC(=O)c1ccc([N+](=O)[O-])c(OCC2COCCO2)c1Cl (stereo not shown) [1-77],≥ 80,≥ 80,no damage whatsoever
Cn1nnnc1NC(=O)c1ccc([N+](=O)[O-])c(OCC2OCCO2)c1Cl [1-78],≥ 80,≥ 80,no damage whatsoever
Cc1c(C(=O)Nc2nnnn2C)ccc([N+](=O)[O-])c1OCC1COCCO1 (stereo not shown) [1-119],≥ 80,≥ 80,–
CCn1nnnc1NC(=O)c1ccc([N+](=O)[O-])c(OC)c1Br [2-1],≥ 80,≥ 80,–
CCn1nnnc1NC(=O)c1ccc([N+](=O)[O-])c(OCCCOC)c1Br [2-19],–,–,no damage whatsoever
CCn1nnnc1NC(=O)c1ccc([N+](=O)[O-])c(OCC2COCCO2)c1Br (stereo not shown) [2-34],≥ 80,≥ 80,–
CCn1nnnc1NC(=O)c1ccc([N+](=O)[O-])c(OC)c1Cl [2-44],≥ 80,≥ 80,–
CCn1nnnc1NC(=O)c1ccc([N+](=O)[O-])c(OCCOC)c1Cl [2-61],–,–,no damage whatsoever
CCn1nnnc1NC(=O)c1ccc([N+](=O)[O-])c(OCCCOC)c1Cl [2-62],–,–,no damage whatsoever
CCn1nnnc1NC(=O)c1ccc([N+](=O)[O-])c(OCCOC)c1C [2-104],–,–,no damage whatsoever
CCn1nnnc1NC(=O)c1ccc([N+](=O)[O-])c(OCC2COCCO2)c1C (stereo not shown) [2-120],≥ 80,≥ 80,–
CCn1nnnc1NC(=O)c1ccc([N+](=O)[O-])c(OCC(=O)N(C)C)c1C [2-123],–,–,no damage whatsoever
